Data from publication PMC7994622, “Eryptosis and Malaria: New Experimental Guidelines and Re-Evaluation of the Antimalarial Potential of Eryptosis Inducers” (Frontiers in Cellular and Infection Microbiology, 2021).
“Also recorded” adds a separate entry of the source. Structures can show the parent of a compound that is named as a salt. Where two headings read alike, the source gives them in different places.

Assays:
naïve erythrocytes [1] = test: Hemolysis assay (absorbance 405 nm) on naïve erythrocytes; format: cell-based, human; details: 48 h
From the text: Absorbance of culture media alone was considered as baseline.

naïve erythrocytes [2] = test: Eryptosis assay by flow cytometry (PS exposure, cell size, intracellular calcium) on naïve erythrocytes; format: cell-based, human; details: for Eryptosis hallmarks, naïve erythrocytes: 4 h in iRPMI, 1, 5, 10 μM (ionomycin 1 μM), PS exposure, cell size, intracellular calcium, hemolysis, significant changes
Procedure: (§1) Use of human erythrocytes was approved by the La Trobe University Research Ethics Committee (ethics number HEC17‐013) and an Australian Red Cross Blood Service Agreement (Deed 19-05VIC-01). Red blood cell populations are intrinsically heterogeneous and variable between donors, therefore each experiment presented in this study was conducted a minimum of three independent times, each with a different batch of blood. Human red cells were processed as soon as possible upon collection to minimize erythrocyte aging. Naïve (non-infected) erythrocytes and Plasmodium falciparum 3D7-infected erythrocytes were cultured at 37°C, in low oxygen conditions (1% O2, 5% CO2, 94% N2), at 4% or 0.4% hematocrit, in incomplete RPMI media (iRPMI: RPMI 1640 HEPES, 50 mg/L hypoxanthine, 10 mg/L gentamicin, pH 6.74), complete RPMI media (cRPMI: incomplete RPMI supplemented with 2.25 g/L sodium bicarbonate and 5 g/L AlbuMAX II), or Ringer solution (1mM CaCl2, 5mM glucose, 32 mM HEPES pH 7.4, 5 mM KCl, 1mM MgSO4, 125mM NaCl). P. falciparum standard in vitro culture conditions were conducted as previously described ([Trager and Jensen, 1976]).
(§2) Drug assays measuring eryptosis were carried out in 100 μl or 500 μl of culture when using 4% or 0.4% hematocrit conditions, respectively. DMSO, the vehicle, was used for the no-drug conditions. Cells were incubated at 37°C, in low oxygen conditions for 1 h to 48 h depending on the assay. Each experiment was performed in triplicate unless otherwise indicated and cells were analyzed by flow cytometry. […] Cells were washed in staining buffer (5 mM CaCl2, 5 mM glucose, 32 mM HEPES pH7.4, 5 mM KCl, 1 mM MgSO4, 125 mM NaCl), resuspended in 0.3 μM of intracellular calcium dye x-Rhod-1 AM (Invitrogen) and incubated in the dark at 37°C for 30 min. Subsequently, cells were washed in staining buffer and incubated with Annexin V-PE (1:20 dilution in staining buffer; BD Bioscience) at 37°C for 20 min in the dark for the staining of surface-exposed phosphatidylserine. Cells were resuspended in 200 μl staining buffer and analyzed within the hour using a CytoFLEX S flow cytometer (Beckman Coulter). 100,000 total events were recorded for each condition at a flow rate of 10 μl/min. Data were analyzed using FlowJo V10. For PS exposure measure, gating was set using data obtained with naïve erythrocytes DMSO control. Infected cells were gated using Hoechst fluorescence. The percentage of Annexin V-PE positive cells, the mean forward scatter height (FSC-H) and mean x-Rhod-1 fluorescence area (PE-A) were acquired for naïve and infected-erythrocytes.

[3] = test system: P. falciparum-infected erythrocytes; test: Eryptosis assay by flow cytometry on P. falciparum-infected erythrocytes; format: cell-based, human; details: 4 h in iRPMI, 4% hematocrit, 1, 5, 10 μM (ionomycin 1 μM), PS exposure, cell size, intracellular calcium, hemolysis, significant changes
Procedure: as §1, §2

P. falciparum [4] = test: Parasite growth inhibition assay (SYBR Gold, 72 h); format: cell-based, Plasmodium falciparum 3D7
Procedure: as §1
Compound-induced parasite growth inhibition was measured as previously described ([Morahan et al., 2020]). Briefly, an asynchronous parasite culture at 0.25% parasitemia and 2% hematocrit was incubated in a 96-well plate with a two-fold serial dilution of compound over 72 h in standard culture conditions (cRPMI, 37°C, low oxygen). Compounds (at 10 mM in DMSO) were added to the first well of the dilution series to produce a 50 µM drug concentration (and 0.5% (v/v) DMSO) and diluted two-fold until a concentration of 0.19 nM compound was reached. Each condition was conducted in triplicates, subject to a freeze/thaw cycle and incubated with the DNA intercalant SYBR Gold following manufacturer instructions (SYBR™ Gold Nucleic Acid Stain, Invitrogen). The average fluorescence between triplicates was measured at 495 nm using a CLARIOstar® microplate reader and analyzed as a proxy of parasite replication.

erythrocytes = details: cited from earlier work
P. berghei = details: cited from earlier work
P. falciparum [5] = details: cited from earlier work
[6] = 1 μM, 1 h, iRPMI, 4% hematocrit
[7] = Plasmodium falciparum, asynchronous culture, cRPMI, up to 50 µM, N=5, read-out: P. falciparum IC50
[8] = asynchronous culture, cRPMI, up to 50 µM, N=5, read-out: P. falciparum IC50

C[C@H](CCC(=O)O)C[C@H](C)C[C@H](C)C(=O)/C=C(\O)[C@H](C)C[C@H](C)C/C=C/[C@@H](C)[C@@H](O)[C@@H](C)[C@@H](O)C[C@@H]1CC[C@@](C)([C@H]2CC[C@@](C)([C@@H](C)O)O2)O1 [Ionomycin, ionomycin]
hemolysis (naïve erythrocytes [1]; 1 μM, Ringer or iRPMI with addition of Albumax, 4% hematocrit): abolish ionomycin-induced hemolysis
hemolysis (OD405) (naïve erythrocytes [1]; 1 μM, Ringer, 4% hematocrit): 20.5
hemolysis (OD405) (naïve erythrocytes [1]; 1 μM, iRPMI, 4% hematocrit): 5.5
increase in PS exposure compared to the no-drug condition (naïve erythrocytes [2]; 1 μM, 1 h, Ringer solution, 4% hematocrit): 62 fold
PS exposure (naïve erythrocytes [2]; 1 μM, 1 h, Ringer, 4% hematocrit): 6.6%
PS exposure (naïve erythrocytes [2]; [6]): 4.4%
increase in PS exposure compared to the no-drug condition (naïve erythrocytes [2]; [6]): 45 fold
PS exposure (naïve erythrocytes [2]; 1 μM, 24 h, Ringer+Albumax, 4% hematocrit): 13.2%
PS exposure (naïve erythrocytes [2]; 1 μM, 48 h, Ringer+Albumax, 4% hematocrit): 22%
PS exposure (naïve erythrocytes [2]; 1 μM, 48 h, Ringer, 4% hematocrit): 24%
PS exposure (naïve erythrocytes [2]; 1 μM, 48 h, iRPMI+Albumax, 4% hematocrit): 15%
PS exposure (naïve erythrocytes [2]; 1 μM, 48 h, iRPMI+Albumax, 4% hematocrit, listed as ionomycin): 14.6%
PS exposure (naïve erythrocytes [2]; 1 μM, 48 h, iRPMI, 4% hematocrit): 23%
Eryptosis hallmarks, naïve erythrocytes (naïve erythrocytes [2]; 4% hematocrit): ↑ PS exposure ↓ Cell Size (1 μM)
Eryptosis hallmarks, naïve erythrocytes (naïve erythrocytes [2]; 4% hematocrit, listed as ionomycin): significant increase of PS exposure and a decrease in cell size
Eryptosis hallmarks, P. falciparum-infected erythrocytes [3]: ↑ PS exposure ↓ Cell Size (1 μM)
Eryptosis hallmarks, P. falciparum-infected erythrocytes ([3]; listed as ionomycin): significant increase of PS exposure and a decrease in cell size

C[C@@H]1CC[C@H]2[C@@H](C)C(=O)O[C@@H]3O[C@@]4(C)CC[C@@H]1[C@]32OO4 [artemisinin]
IC50 (P. falciparum [4]; Plasmodium falciparum, asynchronous culture, cRPMI, read-out: P. falciparum IC50): 0.012 µM

CCCCc1oc2ccccc2c1C(=O)c1cc(I)c(OCCN(CC)CC)c(I)c1 [Amiodarone, amiodarone HCl]
Published eryptosis induction concentration (erythrocytes; naïve erythrocytes, ref Nicolay et al., 2007): 5 µM, ([Nicolay et al., 2007])
Published eryptosis induction concentration (erythrocytes; naïve erythrocytes, ref Nicolay et al., 2007, listed as amiodarone): 5 µM
Eryptosis hallmarks, naïve erythrocytes (naïve erythrocytes [2]; 4% hematocrit): ↑ Calcium (5 μM)
Eryptosis hallmarks, P. falciparum-infected erythrocytes [3]: Ns
Effect on P. berghei: parasitemia (P. berghei; Pb in vivo, ref Bobbala et al., 2010b): Reduced parasitemia
Effect on P. berghei: mice survival (P. berghei; Pb, ref Bobbala et al., 2010b): increased mice survival
Effect on P. falciparum: parasitemia (P. falciparum [5]; Pf in vitro, ref Bobbala et al., 2010b): Reduced parasitemia

Nc1ncnc2c1ncn2[C@@H]1O[C@H](CO)C[C@H]1O [Cordycepin, cordycepin]
Published eryptosis induction concentration (erythrocytes; mouse erythrocytes, ref Lui et al., 2007): 31 µM, ([Lui et al., 2007])
Published eryptosis induction concentration (erythrocytes; mouse erythrocytes, ref Lui et al., 2007, listed as cordycepin): 31 µM
Eryptosis hallmarks, naïve erythrocytes (naïve erythrocytes [2]; 4% hematocrit): Ns
Eryptosis hallmarks, P. falciparum-infected erythrocytes [3]: Ns
IC50 (P. falciparum [4]; [7]): 12 µM
IC50 (P. falciparum [4]; asynchronous culture, cRPMI, up to 50 µM, N=5, listed as cordycepin, read-out: P. falciparum IC50): > 10 µM
IC50 (P. falciparum [4]; [8]): 12.1 µM

C=C1C(=O)[C@]23[C@H](O)[C@H]1CC[C@H]2[C@@]12CO[C@]3(O)[C@@H](O)[C@@H]1C(C)(C)CC[C@@H]2O [Oridonin, oridonin]
Published eryptosis induction concentration (erythrocytes; naïve erythrocytes, ref Jilani et al., 2011): 25 µM, ([Jilani et al., 2011])
Published eryptosis induction concentration (erythrocytes; naïve erythrocytes, ref Jilani et al., 2011, listed as oridonin): 25 µM
Eryptosis hallmarks, naïve erythrocytes (naïve erythrocytes [2]; 4% hematocrit): Ns
Eryptosis hallmarks, naïve erythrocytes (naïve erythrocytes [2]; 4% hematocrit, listed as oridonin): did not induce statistically significant changes; also recorded: no significant increase
Eryptosis hallmarks, P. falciparum-infected erythrocytes [3]: Ns
Eryptosis hallmarks, P. falciparum-infected erythrocytes ([3]; listed as oridonin): did not induce statistically significant changes; also recorded: no significant increase
IC50 (P. falciparum [4]; [7]): ~2 µM
IC50 (P. falciparum [4]; [8]): ≤ 2 µM

CC(C)(C)CC(C)(C)c1ccc(OCCOCC[N+](C)(C)Cc2ccccc2)cc1 [Benzethonium, benzethonium chloride]
Eryptosis hallmarks, naïve erythrocytes (naïve erythrocytes [2]; 4% hematocrit): Ns
Eryptosis hallmarks, P. falciparum-infected erythrocytes [3]: Ns *

CNC(=O)c1cc(Oc2ccc(NC(=O)Nc3ccc(Cl)c(C(F)(F)F)c3)cc2)ccn1 [BAY 43-9006, Sorafenib]
hemolysis (naïve erythrocytes [1]; 10 µM, Ringer, 0.4% hematocrit): significantly induced hemolysis
hemolysis (naïve erythrocytes [1]; 10 µM, Ringer, 4% hematocrit): not
hemolysis (naïve erythrocytes [1]; 10 µM, cRPMI, 4% hematocrit): not
percentage of PS-exposing cells (naïve erythrocytes [2]; 10 µM, 48 h, Ringer solution, 0.4% hematocrit): 41%
percentage of PS-exposing cells (naïve erythrocytes [2]; 10 µM, 48 h, Ringer solution, 4% hematocrit): 10%
PS exposure (naïve erythrocytes [2]; 10 µM, 48 h, cRPMI, 4% hematocrit): no significant increase
Eryptosis hallmarks, naïve erythrocytes (naïve erythrocytes [2]; 4% hematocrit): Ns
Eryptosis hallmarks, P. falciparum-infected erythrocytes [3]: Ns
IC50 (P. falciparum [4]; [7]): < 10 µM
IC50 (P. falciparum [4]; [8]): 7.48 µM

CCN(CC)CCCC(C)Nc1ccnc2cc(Cl)ccc12 (stereo not drawn) [chloroquine]
IC50 (P. falciparum [4]; Plasmodium falciparum, read-out: P. falciparum IC50, asynchronous culture, cRPMI, 72 h): 0.022 µM

O=c1cc(-c2ccc(O)cc2)oc2cc(O)cc(O)c12 [Apigenin, apigenin]
Published eryptosis induction concentration (erythrocytes; naïve erythrocytes, ref Zbidah et al., 2012): 15 µM, ([Zbidah et al., 2012])
Published eryptosis induction concentration (erythrocytes; naïve erythrocytes, ref Zbidah et al., 2012, listed as apigenin): 15 µM
Eryptosis hallmarks, naïve erythrocytes (naïve erythrocytes [2]; 4% hematocrit): Ns
Eryptosis hallmarks, P. falciparum-infected erythrocytes [3]: Ns
Effect on P. berghei: parasitemia (P. berghei; Pb, ref Amiri et al., 2018): Decreased parasitemia (Pb) ([Amiri et al., 2018])
IC50 (P. falciparum [4]; [8]): 65.8 µM
IC50 (P. falciparum [5]; in vitro, ref Fallatah and Georges, 2017, read-out: P. falciparum IC50, previously published): 36 µM
